From patent US20180201647A1, “Peptoid” (The University of Durham, priority 2015, published 2018) come the findings set out here.

Common to all, as to type: cell-based
In experiment [1] the test system is S. aureus (NCTC 6571) biofilm. Description: Single species biofilm treatment, crystal violet assay. The following applies: 100 μM peptoid, 24 hours, FIG. 17B. As for the experimental part:
(§1) C. albicans (NCTC 3179) was subcultured aerobically on Sabouraud agar plates and propagated in yeast peptone dextrose broth. E. coli (ATCC 29522) and S. aureus (NCTC 6571) were grown on blood agar plates and propagated in brain heart infusion (BHI) broth.
(§2) Overnight cultures of C. albicans were washed and resuspended in a modified RPMI-1640 (Sigma-Aldrich, St Louis, USA) medium to yield an inoculum of 1.0×10^6 cells/ml. Overnight cultures of S. aureus or E. coli were washed and resuspended in brain heart infusion broth (Oxoid, Basingstoke, UK) to yield an inoculum of 5.0×10^6 cells/ml. A total volume of 100 μl of each inoculum was added to microtitre plate wells (Thermo Fisher Scientific, Roskilde, Denmark). An initial biofilm was allowed to form for 4 hours. Wells were washed three times with 200 μl PBS to facilitate removal of planktonic cells and the biofilms were then treated with 100 μM of peptoids 1-4 in the appropriate broth. Plates were incubated for a further 24 hours to allow biofilm maturation. After removal of planktonic cells by washing, biofilms were quantified by the crystal violet assay or by PMA-qPCR.
(§3) Biofilm quantification by crystal violet assay Washed biofilms were fixed with 100 μl methanol for 10 minutes. Following removal of methanol, the wells were air dried and stained with crystal violet solution (Clin-Tech Ltd, Guildford, UK) for 20 minutes at room temperature. Excess stain was removed by washing, the plate was then air dried and bound crystal violet was re-solubilised in 16 μl 33% acetic acid prior to reading at 570 nm in a microtitre plate reader (Tecan GENios, Ziirich, Switzerland).

The subject of experiment [2] is Escherichia coli K12 W3110. How it is done: (§4) Species used in MIC assays included gram-negative Escherichia coli K12 W3110, Pseudomonas aeruginosa laboratory strain PAO2 and Serratia marcescens laboratory strain and gram-positive Staphylococcus aureus NCTC 6571 and Micrococcus luteus laboratory strain.
(§5) Bacterial cultures were prepared by streaking the bacterial strains on to agar plates with an inoculation loop and incubating overnight at 37° C. A single colony was then selected and placed in 5 mL of Iso-Sensitest broth using an inoculation loop and incubated at 37° C. with shaking overnight.
(§6) MIC values were attained according to the protocol described by J. M. Andrews et al. [J. M. Andrews, J. Antimicrob. Chemother., 2001, 48, 5-16] and were conducted in 96-well microtitre plates in triplicate. 10-50 μL of each overnight culture was inoculated into 1.2 mL of Iso-Sensitest broth and grown at 37° C. with shaking. […] The inoculum was diluted ten-fold with Iso-Sensitest broth before use (to ˜10^3 cfu/spot). Peptide solutions were initially dissolved in DMSO (5 mg mL^−1) and then diluted further with Iso-Sensitest broth to achieve a concentration range of 4 mgL^−1 to 512 mgL^−1 using 2-fold serial dilutions. Samples were vortexed between dilutions where necessary to aid dissolution. 50 μL of inoculum and 50 μL of peptide solution were added to each test well to achieve a final concentration range of 2 mgL^−1 to 256 mgL^−1. Separate dilutions of ampicillin and DMSO were made up in a similar manner to act as a positive antibacterial control and a +DMSO control, respectively. 50 μL of inoculum and 50 μL of Iso-Sensitest broth were used as a positive control and 100 μL of inoculum was used as a negative control. Positive and negatives controls were conducted multiple times in parallel per plate. […] Quantitative data were attained as A650nm values using a BioTek® Synergy™ H4 Hybrid Multi-Mode Microplate Reader.

The test system of experiment [3] is Pseudomonas aeruginosa laboratory strain PAO2. How it is done: as §4, §5, §6
The subject of experiment [4] is Staphylococcus aureus NCTC 6571. As for the experimental part: as §4, §5, §6
In experiment [5] the test system is Serratia marcescens laboratory strain. The following applies: 16 h. How it is done: as §4, §5, §6
Experiment [6] has as its system T. cruzi Tulahuen strain C2C4. Description: microbe, parasite or virus in culture. The following applies: for IC50: in L-6 cells, 96 h, read-out: IC50 T. cruzi; for active against T. cruzi: statement in words. As for the experimental part:
Rat skeletal myoblasts (L-6 cells) were seeded in 96-well microtitre plates at 2000 cells/well in 100 μL RPMI 1640 medium with 10% FBS and 2 mM 1-glutamine. After 24 h the medium was removed and replaced by 100 μl per well containing 5000 trypomastigote forms of T. cruzi Tulahuen strain C2C4 containing the β-galactosidase (Lac Z) gene. After 48 h the medium was removed from the wells and replaced by 100 μl fresh medium with or without a serial drug dilution of eleven 3-fold dilution steps covering a range from 100 to 0.002 μg/ml. After 96 h of incubation the plates were inspected under an inverted microscope to assure growth of the controls and sterility. Then the substrate CPRG/Nonidet (50 μl) was added to all wells. A color reaction developed within 2-6 h and could be read photometrically at 540 nm. Data were analyzed with the graphic programme Softmax Pro (Molecular Devices), which calculated IC50 values by linear regression from the sigmoidal dose inhibition curves. Benznidazole is used as control (IC50 0.5+0.2 μg/ml).

Experiment [7] concerns E. coli (ATCC 29522) biofilm. The experiment is described as follows: Single species biofilm treatment, crystal violet assay. The settings on record: 100 μM peptoid, 24 hours, FIG. 17C. As for the experimental part:
as §1, §2, §3

Setting [8] is: second figure of cell, 37° C., 16 h, Iso-Sensitest broth.
Setting [9] is: second figure of cell, 37° C., Iso-Sensitest broth.

Like-named read-outs stand apart in the source and are kept apart here. Where a SMILES comes first, the peptide text is derived from it. [ ]: non-standard residue; d: D form. Nspe = C[C@H](NCC(=O)O)c1ccccc1; NhArg = N=C(N)NCCCCNCC(=O)O; Nlys = NCCCCNCC(=O)O

Turning to `C[C@@H](c1ccccc1)N(CC(N)=O)C(=O)CN(C(=O)CN(CCCCNC(=N)N)C(=O)CN(C(=O)CN(C(=O)CN(CCCCNC(=N)N)C(=O)CN(C(=O)CN(C(=O)CN(CCCCN)C(=O)CN(C(=O)CN(C(=O)CNCCCCN)[C@@H](C)c1ccccc1)[C@@H](C)c1ccccc1)[C@@H](C)c1ccccc1)[C@@H](C)c1ccccc1)[C@@H](C)c1ccccc1)[C@@H](C)c1ccccc1)[C@@H](C)c1ccccc1` [Peptoid 1, (NLys-Nspe-Nspe)2(NhArg-Nspe-Nspe)2] (H-[Nlys][Nspe][Nspe][Nlys][Nspe][Nspe][NhArg][Nspe][Nspe][NhArg][Nspe][Nspe]-NH2; N-terminus assumed), in experiment [1], the “activity against the S. aureus biofilm” value is given as “strongest anti-bacterial activity”. For the same compound, the “MIC E. coli” value in experiment [2] (K12, 16 h) is 17 µM; in experiment [2] (setting [8]) it was 32 mgL^−1. The “MIC P. aeruginosa” value in experiment [3] (laboratory strain PAO2, 16 h) was 34 µM; in experiment [3] (setting [8]), 64 mgL^−1. Moreover, the “MIC S. aureus” value in experiment [4] (NCTC 6571, 16 h) amounted to 17 µM; in experiment [4] (setting [8]) it was 32 mgL^−1. Besides, the “MIC S. marcescens” value worked out at 134 µM in experiment [5] (laboratory strain) and 256 mgL^−1 in experiment [5] (setting [9]). The half-inhibitory concentration (IC50) in experiment [6] was 12.3 µM. The “active against T. cruzi” value in experiment [6] is recorded as “active”.

`C[C@@H](c1ccccc1)N(CC(N)=O)C(=O)CN(C(=O)CN(CCCCN)C(=O)CN(C(=O)CN(C(=O)CN(CCCCNC(=N)N)C(=O)CN(C(=O)CN(C(=O)CN(CCCCN)C(=O)CN(C(=O)CN(C(=O)CNCCCCNC(=N)N)[C@@H](C)c1ccccc1)[C@@H](C)c1ccccc1)[C@@H](C)c1ccccc1)[C@@H](C)c1ccccc1)[C@@H](C)c1ccccc1)[C@@H](C)c1ccccc1)[C@@H](C)c1ccccc1` [Peptoid 4, [(NhArg-Nspe-Nspe)(NLys-Nspe-Nspe)]2] (H-[NhArg][Nspe][Nspe][Nlys][Nspe][Nspe][NhArg][Nspe][Nspe][Nlys][Nspe][Nspe]-NH2; N-terminus assumed): in experiment [7], the “activity against the E. coli biofilm” value is reported as “strongest anti-bacterial activity”. Besides, the “MIC E. coli” value is 17 µM in experiment [2] (K12, 16 h) and 32 mgL^−1 in experiment [2] (setting [8]). Besides, the “MIC P. aeruginosa” value in experiment [3] (laboratory strain PAO2, 16 h) stood at 67 µM; in experiment [3] (setting [8]) it was 128 mgL^−1. Moreover, the “MIC S. aureus” value was determined as 17 µM in experiment [4] (NCTC 6571, 16 h) and 32 mgL^−1 in experiment [4] (setting [8]). Also, the “MIC S. marcescens” value was greater than 134 µM in experiment [5] (laboratory strain) and greater than 256 mgL^−1 in experiment [5] (setting [9]). Moreover, the 50% inhibitory concentration (IC50) in experiment [6] turned out to be 21.5 µM. The “active against T. cruzi” value in experiment [6] was “active”.

By IC50 is commonly meant the midpoint of a concentration-inhibition curve.
